Patent US4722892A, “Monoclonal antibodies against metal chelates” (priority 1984, dated 1988)
Like-named read-outs stand apart in the source and are kept apart here.

What was measured:
[1] = tested on: monoclonal antibody CHA255; test: Association constants of metal chelates with monoclonal antibody CHA255 by equilibrium dialysis (method of Eisen), displacement of In(III)-(L)-aminobenzyl EDTA; assay type: binding, BALB/c mice; conditions: for Kd: dialysis 24h, 37°, pH 7
Text: (§1) Table I below sets forth the association constants of the two monoclonal antibodies described in Example II for a number of chelates. In Part A, the relative affinities of the antibodies for aminobenzyl EDTA complexes of In(III) and other ions are shown. In Part B, the binding constants of the antibodies for In(III) complexes with other chelating agents are shown. The metals selected for comparison were trivalent ions similar to In(III) and divalent ions whose EDTA complexes form structures similar to that of an In-EDTA complex. The binding constants for the chelates were determined by the method of Eisen, Meth. Med. Res., 10, 106 (1964) by dialysis of the antibody and metal chelates to near equilibrium (24h) at 37° in 0.05M 2-hydroxyethyl-piperazine-ethanesulfonate, 0.lM NaCl, 0.1% NaN3 and 0.1% bovine serum albumin at pH 7. The concentration of antibody binding sites inside the dialysis bag was 10^-7 M, and the concentration of free In(III)-(L)-aminobenzyl EDTA was in the same range.
(§2) Known amounts of another chelate were added to the solution after equilibrium until roughly half of the bound indium chelate had been displaced at equilibrium.

[2] = tested on: monoclonal antibody CHB235; test: Association constants of metal chelates with monoclonal antibody CHB235 by equilibrium dialysis (method of Eisen), displacement of In(III)-(L)-aminobenzyl EDTA; assay type: binding, BALB/c mice; conditions: dialysis 24h, 37°, pH 7
Text: as §1, §2

[3] = metal-EDTA chelate (not the L-Benzyl-EDTA chelate); from Sillen and Martell / Martell and Smith; cited from earlier work
[4] = Table 1 Part B, indium chelates with different chelators, read-out: K A^CHA255 (antibody binding constant for each indium chelate) (converted)
[5] = Table 1 Part B, indium chelates with different chelators, read-out: K A^CHA235 (antibody binding constant for each indium chelate) (converted)

Compound | Kd [1, 4] [nM] | Kd [2, 5] [nM] | log K S^EDTA(M) (logarithm of the stability constant for each metal-EDTA chelate) [3] | Kd ([1]; Table 1 Part A, coefficient of variation in parentheses, read-out: K A^CHA255 (antibody binding constant for metal-L-Benzyl-EDTA chelate) (converted)) [nM] | affinity (KA) ([1]; summary statement, antibody not named) | Kd ([2]; Table 1 Part A, coefficient of variation on next line, read-out: K A^CHB235 (antibody binding constant for metal-L-Benzyl-EDTA chelate) (converted)) [nM]
O=C(O)CN(CC(=O)O)CC(Cc1ccccc1)N(CC(=O)O)CC(=O)O [D-Benzyl-EDTA] | 15.9 | 27.8 |  |  |  | 
O=C(O)CN(CCN(CC(=O)O)CC(=O)O)CC(=O)O [EDTA] | 5.88 | 7.69 |  |  |  | 
O=C(O)CN(CCO)CCN(CC(=O)O)CC(=O)O [HED3A] | 23.8 | 25 |  |  |  | 
In(III)-(L)-aminobenzyl EDTA | 0.25 | 9.09 | 25.0 | 0.25 | greater than 10^9 M^-1 | 9.09
